Converted amounts (≈) assume the structure as drawn. Each block holds one molecule with its values, some of them ahead of it.
Tests used:
Experiment in all cases: ≥ marks a high value that may be exact or a test limit, other limits are often not marked, values filed in µg/mL are converted to µM
Bacillus anthracis = tested on: Bacillus anthracis
Bacillus cereus = tested on: Bacillus cereus
Staphylococcus aureus = tested on: Staphylococcus aureus
Escherichia coli = tested on: Escherichia coli
[1] = tested on: Escherichia coli ATCC 25922
[2] = tested on: Staphylococcus aureus ATCC 25923
[3] = tested on: Candida albicans ATCC 20032
[4] = tested on: Bacillus subtilis ATCC 6633
[5] = tested on: Pseudomonas aeruginosa ATCC 15442
[6] = tested on: Bacillus subtilis CCT 2576
[7] = tested on: Staphylococcus aureus ATCC 6538
[8] = tested on: Escherichia coli DH5alpha
Staphylococcus xylosus = tested on: Staphylococcus xylosus
[9] = tested on: Micrococcus luteus ATCC 9341
Escherichia coli JM109 = tested on: Escherichia coli JM109
[10] = tested on: Salmonella typhimurium KCTC 1926
[11] = tested on: Saccharomyces cerevisiae KCTC 7296
[12] = tested on: Trichosporon beigelii KCTC 7707
[13] = tested on: Escherichia coli KCTC 1682
[14] = tested on: Bacillus subtilis KCTC 1918
[15] = tested on: Candida albicans KCTC 7270
[16] = tested on: Staphylococcus aureus KCTC 1621
[17] = tested on: Staphylococcus epidermidis KCTC 1917
[18] = tested on: Pseudomonas aeruginosa KCTC 1637
Cryptococcus neoformans = tested on: Cryptococcus neoformans
Streptococcus pneumoniae = tested on: Streptococcus pneumoniae
Streptococcus mutans = tested on: Streptococcus mutans
Saccharomyces cerevisiae = tested on: Saccharomyces cerevisiae
Bacillus subtilis = tested on: Bacillus subtilis
Candida albicans = tested on: Candida albicans
Serratia marcescens = tested on: Serratia marcescens
Salmonella typhimurium = tested on: Salmonella typhimurium
Pseudomonas putida = tested on: Pseudomonas putida

SMILES: CC(C)C[C@H](NC(=O)[C@@H](NC(=O)[C@@H]1CCCN1C(=O)[C@H](CC(C)C)NC(=O)[C@@H](N)Cc1ccccc1)C(C)C)C(=O)N[C@H](C(=O)N[C@@H](CCCCN)C(=O)N[C@H](C(=O)N[C@@H](Cc1ccccc1)C(=O)N[C@@H](CCCN=C(N)N)C(=O)N[C@@H](Cc1ccc(O)cc1)C(=O)N[C@@H](CO)C(=O)N[C@@H](CCCCN)C(=O)N[C@@H](CCCCN)C(=O)N[C@H](C(=O)N[C@@H](C)C(=O)N[C@@H](C)C(=O)NCC(=O)N[C@@H](CS)C(=O)N[C@@H](Cc1ccccc1)C(=O)O)[C@@H](C)O)C(C)C)C(C)C [FLPVLVKVFRYSKKTAAGCF]
MIC (Bacillus anthracis): ≥ 113 µM | MIC (Bacillus cereus): 28.1 µM (≈ 64 µg/mL) | MIC (Staphylococcus aureus): > 113 µM | MIC (Escherichia coli): > 56.3 µM

SMILES: CC[C@H](C)[C@H](N)C(=O)N[C@@H](CC(C)C)C(=O)N[C@H](C(=O)N[C@@H](CCCCN)C(=O)N[C@@H](CCCN=C(N)N)C(=O)N[C@@H](CCCCN)C(=O)O)[C@@H](C)CC [ILIKRK]
MIC [8]: ≥ 64 µM | MIC (Staphylococcus xylosus): ≥ 64 µM

SMILES: CC[C@H](C)[C@H](N)C(=O)N[C@@H](CC(C)C)C(=O)N1CCC[C@H]1C(=O)N[C@H](C(=O)N[C@@H](CCCCN)C(=O)N[C@H](C(=O)N1CCC[C@H]1C(=O)N[C@H](C(=O)N[C@H](C(=O)N1CCC[C@H]1C(=O)N[C@H](C(=O)N[C@@H](CCCN=C(N)N)C(=O)N[C@@H](CCCN=C(N)N)C(N)=O)[C@@H](C)CC)[C@@H](C)CC)[C@@H](C)CC)[C@@H](C)CC)[C@@H](C)CC [ILPIKIPIIPIRR]
MIC [9]: 25 µM (≈ 38.5 µg/mL)

SMILES: CC[C@H](C)[C@H](N)C(=O)N[C@@H](CC(N)=O)C(=O)N[C@@H](Cc1c[nH]c2ccccc12)C(=O)N[C@@H](CCCCN)C(=O)N[C@@H](CCCCN)C(=O)N[C@H](C(=O)N[C@@H](C)C(=O)N[C@@H](CCC(=O)O)C(=O)N[C@H](C(=O)NCC(=O)NCC(=O)N[C@@H](CCCCN)C(=O)N[C@H](C(=O)N[C@@H](CC(C)C)C(=O)N[C@@H](CO)C(=O)N[C@@H](CO)C(=O)N[C@@H](CC(C)C)C(N)=O)[C@@H](C)CC)C(C)C)[C@@H](C)CC [INWKKIAEVGGKILSSL]
MIC (Escherichia coli JM109): 4.31 µM (≈ 8 µg/mL) | MIC [4]: 1.08 µM (≈ 2 µg/mL)

SMILES: CC[C@H](C)[C@H](NC(=O)[C@H](CCCCN)NC(=O)[C@H](CO)NC(=O)[C@H](Cc1ccccc1)NC(=O)[C@H](CC(C)C)NC(=O)[C@H](CCCCN)NC(=O)[C@H](CCC(=O)O)NC(=O)[C@H](CC(C)C)NC(=O)[C@H](CCCN=C(N)N)NC(=O)[C@H](CCCCN)NC(=O)[C@H](Cc1ccccc1)NC(=O)[C@@H](NC(=O)[C@@H](N)CCCCN)C(C)C)C(N)=O [KVFKRLEKLFSKI]
MIC [10]: 0.78 µM (≈ 1.28 µg/mL) | MIC [11]: 8.84 µM (≈ 14.5 µg/mL) | MIC [12]: 1.56 µM (≈ 2.55 µg/mL) | MIC [13]: 3.12 µM (≈ 5.11 µg/mL) | MIC [14]: 2.21 µM (≈ 3.61 µg/mL) | MIC [15]: 25 µM (≈ 40.9 µg/mL) | MIC [16]: 6.25 µM (≈ 10.2 µg/mL) | MIC [17]: 6.25 µM (≈ 10.2 µg/mL) | MIC [18]: 1.56 µM (≈ 2.55 µg/mL)

SMILES: CC(C)C[C@H](NC(=O)[C@H](CCCN=C(N)N)NC(=O)[C@H](Cc1cnc[nH]1)NC(=O)[C@@H](NC(=O)[C@H](CCCN=C(N)N)NC(=O)CNC(=O)[C@@H](NC(=O)[C@@H]1CCCN1C(=O)[C@H](Cc1ccccc1)NC(=O)[C@H](CCC(N)=O)NC(=O)[C@H](CC(C)C)NC(=O)CNC(=O)[C@H](C)NC(=O)[C@@H](N)CCCN=C(N)N)C(C)C)C(C)C)C(=O)O [RAGLQFPVGRVHRL]
MIC (Cryptococcus neoformans): ≥ 159 µM | MIC (Streptococcus pneumoniae): ≥ 79.7 µM | MIC (Streptococcus mutans): ≥ 159 µM | MIC (Saccharomyces cerevisiae): ≥ 159 µM | MIC (Bacillus subtilis): ≥ 79.7 µM | MIC (Candida albicans): > 159 µM | MIC (Serratia marcescens): ≥ 159 µM | MIC (Staphylococcus aureus): 159 µM (≈ 256 µg/mL) | MIC (Salmonella typhimurium): ≥ 79.7 µM | MIC (Pseudomonas putida): ≥ 159 µM | MIC (Escherichia coli): 159 µM (≈ 256 µg/mL)

SMILES: CC(C)C[C@H](NC(=O)[C@H](CC(C)C)NC(=O)[C@H](CCCN=C(N)N)NC(=O)[C@H](CCCN=C(N)N)NC(=O)[C@H](CC(C)C)NC(=O)[C@H](CC(C)C)NC(=O)[C@H](CCCN=C(N)N)NC(=O)[C@H](CCCN=C(N)N)NC(=O)[C@H](CC(C)C)NC(=O)[C@H](CC(C)C)NC(=O)[C@H](CCCN=C(N)N)NC(=O)[C@H](CCCN=C(N)N)NC(=O)[C@H](CC(C)C)NC(=O)[C@H](CC(C)C)NC(=O)[C@H](CCCN=C(N)N)NC(=O)[C@H](CCCN=C(N)N)NC(=O)[C@H](CC(C)C)NC(=O)[C@H](CC(C)C)NC(=O)[C@@H](N)CCCN=C(N)N)C(=O)N[C@@H](CCCN=C(N)N)C(=O)O [RLLRRLLRRLLRRLLRRLLR]
MIC (Cryptococcus neoformans): 2.95 µM (≈ 8 µg/mL) | MIC (Streptococcus pneumoniae): 0.738 µM (≈ 2 µg/mL) | MIC (Streptococcus mutans): 0.738 µM (≈ 2 µg/mL) | MIC (Saccharomyces cerevisiae): 2.95 µM (≈ 8 µg/mL) | MIC (Bacillus subtilis): 0.738 µM (≈ 2 µg/mL) | MIC (Candida albicans): 2.95 µM (≈ 8 µg/mL) | MIC (Serratia marcescens): 0.738 µM (≈ 2 µg/mL) | MIC (Staphylococcus aureus): 0.369 µM (≈ 1 µg/mL) | MIC (Salmonella typhimurium): 0.369 µM (≈ 1 µg/mL) | MIC (Pseudomonas putida): 0.738 µM (≈ 2 µg/mL) | MIC (Escherichia coli): 0.738 µM (≈ 2 µg/mL)

SMILES: CC(C)C[C@H](NC(=O)[C@H](CC(C)C)NC(=O)[C@H](CO)NC(=O)[C@H](CCCCN)NC(=O)[C@H](CC(C)C)NC(=O)[C@@H]1CCCN1C(=O)[C@H](C)NC(=O)[C@H](Cc1ccccc1)NC(=O)[C@@H]1CCCN1C(=O)[C@H](CC(C)C)NC(=O)[C@@H](NC(=O)[C@H](CCCCN)NC(=O)[C@H](CCCCN)NC(=O)[C@@H](NC(=O)[C@H](CO)NC(=O)[C@@H](N)C(C)C)C(C)C)C(C)C)C(=O)N[C@@H](CO)C(=O)N[C@@H](Cc1ccccc1)C(=O)N[C@@H](C)C(=O)N[C@@H](Cc1ccccc1)C(=O)O [VSVKKVLPFAPLKSLLSFAF]
MIC (Bacillus anthracis): ≥ 117 µM | MIC (Bacillus cereus): ≥ 117 µM | MIC (Staphylococcus aureus): > 117 µM | MIC (Escherichia coli): 117 µM (≈ 256 µg/mL)

Results, then the molecule that gave them:

MIC [1]: > 50.6 µM | MIC [2]: 4.76 µM (≈ 9.4 µg/mL) | MIC [3]: 9.52 µM (≈ 18.8 µg/mL) | MIC [4]: 9.52 µM (≈ 18.8 µg/mL)
SMILES: CC[C@H](C)[C@H](N)C(=O)N[C@@H](CC(C)C)C(=O)NCC(=O)N1CCC[C@H]1C(=O)N[C@H](C(=O)N[C@H](C(=O)N[C@@H](CCCCN)C(=O)N[C@H](C(=O)N[C@H](C(=O)NCC(=O)NCC(=O)N[C@H](C(=O)N[C@H](C(=O)NCC(=O)NCC(=O)N[C@@H](CC(C)C)C(=O)N[C@@H](CC(C)C)C(=O)N[C@@H](CCCCN)C(=O)N[C@@H](CC(N)=O)C(=O)N[C@@H](CC(C)C)C(N)=O)[C@@H](C)CC)C(C)C)[C@@H](C)CC)[C@@H](C)O)[C@@H](C)CC)C(C)C [ILGPVIKTIGGVIGGLLKNL]

MIC [1]: > 49.5 µM | MIC [2]: > 49.5 µM | MIC [3]: ≥ 49.5 µM | MIC [4]: ≥ 49.5 µM
SMILES: CC[C@H](C)[C@H](N)C(=O)N[C@@H](CC(C)C)C(=O)NCC(=O)N1CCC[C@H]1C(=O)N[C@H](C(=O)N[C@@H](CC(C)C)C(=O)NCC(=O)N[C@@H](CC(C)C)C(=O)N[C@H](C(=O)N[C@@H](CO)C(=O)N[C@@H](CC(N)=O)C(=O)N[C@H](C(=O)N[C@@H](CC(C)C)C(=O)N[C@@H](CC(=O)O)C(=O)N[C@@H](CC(=O)O)C(=O)N[C@H](C(=O)N[C@@H](CC(C)C)C(=O)NCC(=O)N[C@H](C(=O)N[C@@H](CC(C)C)C(N)=O)[C@@H](C)CC)C(C)C)[C@@H](C)O)C(C)C)C(C)C [ILGPVLGLVSNTLDDVLGIL]

MIC [1]: 10.3 µM (≈ 12.5 µg/mL) | MIC [5]: 1.4 µM (≈ 1.7 µg/mL) | MIC [6]: 1.24 µM (≈ 1.5 µg/mL) | MIC [7]: 10.3 µM (≈ 12.5 µg/mL)
SMILES: CC[C@H](C)[C@H](N)C(=O)N[C@@H](CC(C)C)C(=O)NCC(=O)N[C@H](C(=O)N[C@H](C(=O)N[C@@H](CC(C)C)C(=O)NCC(=O)N[C@@H](CC(C)C)C(=O)N[C@@H](CC(C)C)C(=O)N[C@@H](CCCCN)C(=O)NCC(=O)N[C@@H](CC(C)C)C(N)=O)[C@@H](C)CC)[C@@H](C)O [ILGTILGLLKGL]
